Key:
Assay in all cases: relative viability (nuclei count vs DMSO), 5 days (fraction); higher = more cells survive
[1] = system: NCI-H838
Method in brief: (§1)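 One day after seeding in 1536-well plates, lung cancer cell lines were dosed by pin tool. Dosing was either single-drug or a fixed anchor-drug dose plus five library-drug doses (not always all listed) in √10 steps. After 5 days, nuclei were stained in one fix-and-stain step and counted on 4× images, and relative viability is the nuclei count of treated wells over that of vehicle wells, given as the median of duplicate plates.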

[2] = system: PC-3 [JPC-3]
Method in brief: as §1

[3] = system: NCI-H650
Method in brief: as §1

[4] = system: EBC-1
Method in brief: as §1

[5] = system: RERF-LC-KJ
Method in brief: as §1

[6] = system: A549
Method in brief: as §1

[7] = system: NCI-H1651
Method in brief: as §1

[8] = system: NCI-H520
Method in brief: as §1

[9] = system: Calu-6
Method in brief: as §1

[10] = system: IA-LM
Method in brief: as §1

[11] = system: NCI-H1703
Method in brief: as §1

[12] = system: NCI-H1299
Method in brief: as §1

[13] = system: NCI-H1944
Method in brief: as §1

CC(=O)O[C@@]12CO[C@@H]1C[C@H](O)[C@@]1(C)C(=O)[C@H](O)C3=C(C)[C@@H](OC(=O)[C@H](O)[C@@H](NC(=O)OC(C)(C)C)c4ccccc4)C[C@@](O)([C@@H](OC(=O)c4ccccc4)[C@H]21)C3(C)C [Docetaxel] + C[C@@H](Oc1cc(-c2cnn(C3CCNCC3)c2)cnc1N)c1c(Cl)ccc(F)c1Cl [Crizotinib] (partner 1 µM)
relative viability ([1]; first compound 0.0002 µM): 0.856 | relative viability ([1]; first compound 0.000632 µM): 0.7 | relative viability ([1]; first compound 0.002 µM): 0.155 | relative viability ([1]; first compound 0.006325 µM): 0.201 | relative viability ([1]; first compound 0.02 µM): 0.124 | relative viability ([2]; first compound 0.0002 µM): 0.966 | relative viability ([2]; first compound 0.000632 µM): 0.918 | relative viability ([2]; first compound 0.002 µM): 0.635 | relative viability ([2]; first compound 0.006325 µM): 0.223 | relative viability ([2]; first compound 0.02 µM): 0.172 | relative viability ([3]; first compound 0.0002 µM): 0.504 | relative viability ([3]; first compound 0.000632 µM): 0.356 | relative viability ([3]; first compound 0.002 µM): 0.253 | relative viability ([3]; first compound 0.006325 µM): 0.208 | relative viability ([3]; first compound 0.02 µM): 0.204 | relative viability ([4]; first compound 0.0002 µM): 0.187 | relative viability ([4]; first compound 0.000632 µM): 0.146 | relative viability ([4]; first compound 0.002 µM): 0.167 | relative viability ([4]; first compound 0.006325 µM): 0.163 | relative viability ([4]; first compound 0.02 µM): 0.151 | relative viability ([5]; first compound 0.0002 µM): 0.868 | relative viability ([5]; first compound 0.000632 µM): 0.7 | relative viability ([5]; first compound 0.002 µM): 0.509 | relative viability ([5]; first compound 0.006325 µM): 0.196 | relative viability ([5]; first compound 0.02 µM): 0.166 | relative viability ([6]; first compound 0.0002 µM): 0.641 | relative viability ([6]; first compound 0.000632 µM): 0.432 | relative viability ([6]; first compound 0.002 µM): 0.0535 | relative viability ([6]; first compound 0.006325 µM): 0.0545 | relative viability ([6]; first compound 0.02 µM): 0.0485 | relative viability ([7]; first compound 0.0002 µM): 0.835 | relative viability ([7]; first compound 0.000632 µM): 0.876 | relative viability ([7]; first compound 0.002 µM): 0.612 | relative viability ([7]; first compound 0.006325 µM): 0.168 | relative viability ([7]; first compound 0.02 µM): 0.167 | relative viability ([8]; first compound 0.0002 µM): 0.672 | relative viability ([8]; first compound 0.000632 µM): 0.784 | relative viability ([8]; first compound 0.002 µM): 0.196 | relative viability ([8]; first compound 0.006325 µM): 0.155 | relative viability ([8]; first compound 0.02 µM): 0.156 | relative viability ([9]; first compound 0.0002 µM): 0.805 | relative viability ([9]; first compound 0.000632 µM): 0.394 | relative viability ([9]; first compound 0.002 µM): 0.219 | relative viability ([9]; first compound 0.006325 µM): 0.159 | relative viability ([9]; first compound 0.02 µM): 0.105 | relative viability ([10]; first compound 0.0002 µM): 0.395 | relative viability ([10]; first compound 0.000632 µM): 0.145 | relative viability ([10]; first compound 0.002 µM): 0.0955 | relative viability ([10]; first compound 0.006325 µM): 0.078 | relative viability ([10]; first compound 0.02 µM): 0.0873 | relative viability ([11]; first compound 0.0002 µM): 0.483 | relative viability ([11]; first compound 0.000632 µM): 0.379 | relative viability ([11]; first compound 0.002 µM): 0.226 | relative viability ([11]; first compound 0.006325 µM): 0.0913 | relative viability ([11]; first compound 0.02 µM): 0.133 | relative viability ([12]; first compound 0.0002 µM): 0.972 | relative viability ([12]; first compound 0.000632 µM): 0.984 | relative viability ([12]; first compound 0.002 µM): 0.695 | relative viability ([12]; first compound 0.006325 µM): 0.392 | relative viability ([12]; first compound 0.02 µM): 0.305 | relative viability ([13]; first compound 0.0002 µM): 1.13 | relative viability ([13]; first compound 0.000632 µM): 1.01 | relative viability ([13]; first compound 0.002 µM): 0.956 | relative viability ([13]; first compound 0.006325 µM): 0.192 | relative viability ([13]; first compound 0.02 µM): 0.137

From the supplement of paper PMC10307832
